Data: patent publication US8618110B2, “Compositions and methods for apoptosis modulators” (VM Discovery Inc., priority 2007, dated 2013)

Tests used:
[1] = system: H460 (lung) tumor cell line; assay: MTT proliferation assay, H460; format: cell-based, human; details: FIG. 1B
Experimental: (§1) Human tumor cell lines were obtained from the American Type Culture Collection, the National Cancer Institute or from the originator as a kind gift. All cells were grown in RPMI 1640 (Invitrogen) medium containing 10% fetal bovine serum and 2 mM L-glutamine.
(§2) Logarithmically growing cells cultured in T75 flasks (Falcon) were harvested and inoculated into 96 well microtiter plates in 100 μL at plating densities ranging from 2,000 to 5,000 cells/well depending on the doubling time of individual cell lines. After cell inoculation, the microtiter plates are incubated at 37° C., 5% CO2, 95% air and 100% relative humidity for 24 h prior to addition of drug.
(§3) After 24 h, one plate of each cell line is developed with MTT (3-4,5-Dimethylthiazol-2-yl)-2,5-diphenyltetrazolium bromide, yellow), which is reduced to purple formazan in the mitochondria of living cells. […] The absorbance of this colored solution can be quantified by measuring at a certain wavelength (usually between 500 and 600 nm) by a spectrophotometer. […] The d0 growth value for each cell line is later deducted from each of the readouts at termination of the experiment. Essentially the final readouts are normalized for baseline growth, which enables us direct deduction of growth inhibition parameters from the graphed data. […]
(§4) Two independent experiments were conducted and the IC50 concentrations calculated plus/minus standard deviation.

[2] = system: H23 (lung) tumor cell line; assay: MTT proliferation assay, H23; format: cell-based, human; details: FIG. 1A
Experimental: as §1, §2, §3, §4

human tumor cell lines = assay: MTT proliferation assay, human tumor cell lines; format: cell-based; details: H23, H460, DU-145; IC50 comparison
Experimental: as §1, §2, §3, §4

[3] = system: DU-145 (prostate) tumor cell line; assay: MTT proliferation assay, DU-145; format: cell-based, human; details: FIG. 1C
Experimental: as §1, §2, §3, §4

[4] = system: SF268 (glioblastoma) tumor cell line; assay: MTT proliferation assay, SF268; format: cell-based; details: Homo sapiens, SF-268, 120 h, 5 days
Experimental: as §1, §2, §3, §4

SMILES | IC50 values (range in words) [1] | IC50 values (range in words) [2] | potency compared with VMD in the same cell lines (human tumor cell lines) | IC50 values (range in words) [3] | IC50 [4] [nM]
CN(C)CC[C@H](CSc1ccccc1)Nc1ccc(S(=O)(=O)NC(=O)c2ccc(N3CCN(Cc4ccccc4-c4ccc(Cl)cc4)CC3)cc2)cc1[N+](=O)[O-] [Abt-737] | high μM range | high μM range | at least two-order of magnitude less potent | high μM range | –
O=C(O)c1ccc(N2CCN(CCCn3c4c(n[n+]3[O-])C(=O)c3ccccc3C4=O)CC2)cc1 [Compound 101] | – | – | – | – | 330
